Reference: patent publication US20120213789A1, “New Molecular Target for Treatment of Cancer” (priority 2001, published 2012)

How the values were obtained:
C4-2B cell line = assay: Dose-response kinetics of UC28 protein expression by flow cytometry; format: cell-based, human
Experimental: (§1) Cells were grown to 70-80% confluence at 37° C. and 5% CO2 in T-75 tissue culture plastic flasks. SPB stock solution was added to final concentrations of 0.5, 5.0, 10.0, and 25.0 mM in appropriate fresh media to the cell cultures. Cells were incubated at 37° C. and 5% CO2 for 72 hours. Attached cells were then harvested using a solution of 0.05% trypsin and 0.53 mM EDTA (Invitrogen Corp.). Attached cells were then pooled with any the detached cells and washed with PBS pH 7.2. Cell numbers and percent viability were determined using Trypan blue dye exclusion and a hemacytometer. At the time of their use in an experiment the viability was usually about 85% for untreated cells and a range of about 15-70% for treated cells, with the lower viabilities found at higher SPB concentrations (Thompson C, 1995; Cory et al., 1998; van Engeland et al., 1996). UC28(C) is 2.14 mg/ml rabbit polyclonal aliquot directed against the inventors' UC28 patented biomarker developed by UCor R&D gene discovery program. The Antibody was produced against a twenty amino acid (AA) synthetic peptide from the predicted AA sequence (AA 21-37) UCor, Inc. 840 Research Parkway Oklahoma City, Okla. 73104. Goat Anti-Rabbit CY5 polyclonal Fluorchrome was used as the secondary conjugate for UC28 C rabbit polyclonal antibody and a background control for UC28 C polyclonal. Vendor is Jackson ImmunoResearch Laboratories, Inc. 872 West Baltimore Pike, P.O. Box 9 West Grove, Pa. 19390. A Coulter Elite engineered with a triple laser system was used to analyze all samples. Coulter control beads were used to align lasers for the dual label testing of cell samples. Laser alignment was required for both the Argon (488 nm line) laser and HeNe (633 nm line) laser. These alignments were performed prior to all measurements with the Argon laser (488 nm line) using fluorophores for FITC, RPE, PI and the HeNe laser (633 nm line) for the Cy5 fluorophores being used for the experiments described below. The histographs, voltage settings, gates, color compensation, and pressures were established prior to all sample processing. […] The data confirms the biological differences in these three cell lines and provides a stronger basis upon which to assess the behavior of the UC28 gene under the same SPB treatment conditions. For both of these experiments, supernatants were collected from the same experiments as in Example 1; cells were collected and assayed for apoptosis as well as for UC28 antigen expression using antibodies to SEQ ID NO:4.

LNCaP cell line = assay: as above; format: cell-based, human
Experimental: as §1

O=C([O-])CCCc1ccccc1.[Na+] [SPB, 4-Phenylbutyric Acid, Sodium Salt] was tested, and the “UC28 membrane protein expression” value (C4-2B cell line; 0.5 to 25 mM SPB, C4-2B) was “dramatically over expressing”, the URCO28 expression (C4-2B cell line; C4-2B treated with SPB) was “remained elevated” and the “UC28 membrane protein expression” value (LNCaP cell line; 0.5 to 25 mM SPB, LNCaP) was “dramatically over expressing”. The URCO28 expression (LNCaP cell line; LNCap treated with SPB) was “remained elevated”.
